According to patent US20260355212A1 (priority 2022, published 2026):
Like-named read-outs stand apart in the source and are kept apart here.

What was measured:
[1] = target: SARS-CoV-2 Mpro (Severe acute respiratory syndrome coronavirus 2, UniProt P0DTD1); assay: SARS-CoV-2 Mpro enzymatic inhibition assay (fluorescence); assay type: biochemical
Summary of the method: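 Recombinant Mpro expressed in E. coli was preincubated 30 min at room temperature with 10-point, 3-fold serially diluted compound in duplicate. Fluorogenic substrate was then added and incubated 60 min at 30° C, and fluorescence read at Ex/Em 340/490 nm. IC50 came from a four-parameter fit of % inhibition.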

[2] = target: HCoV-229E Mpro (Human coronavirus 229E, UniProt P0C6X1); assay: HCoV-229E Mpro enzymatic inhibition assay (fluorescence); assay type: biochemical
[3] = target: HCoV-HKU1 Mpro (Human coronavirus HKU1, UniProt P0C6X2); assay: HCoV-HKU1 Mpro enzymatic inhibition assay (fluorescence); assay type: biochemical
Summary of the method: (§1)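 Recombinant Mpro from E. coli was pre-incubated with compound (3-fold, 10-point dilutions, duplicates) for 30 min at room temperature, then fluorogenic peptide substrate was added and fluorescence read at Ex/Em 340/490 nm after 60 min at 30 °C. IC50 came from four-parameter fits of background-corrected inhibition.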

[4] = target: MERS Mpro (Middle East respiratory syndrome-related coronavirus, UniProt K9N7C7); assay: biochemical; parameters: species or system MERS-CoV
[5] = target: HCoV-NL63 Mpro (Human coronavirus NL63, UniProt P0C6X5); assay: HCoV-NL63 Mpro enzymatic inhibition assay (fluorescence); assay type: biochemical
Summary of the method: as §1

[6] = target: HCoV-OC43 Mpro (Human coronavirus OC43, UniProt P0C6X6); assay: HCoV-OC43 Mpro enzymatic inhibition assay (fluorescence); assay type: biochemical
Summary of the method: as §1

[7] = target: SARS-CoV-1 Mpro (Severe acute respiratory syndrome coronavirus, UniProt P0C6X7); assay: biochemical
[8] = mean, 25 nM protein, 25 μM substrate, 30 min pre-incubation, 60 min at 30° C., read-out: Mpro_SARS-CoV-2 mean IC50

HCoV-229E Mpro, sequence (P0C6X1 2966-3267 limits assumed): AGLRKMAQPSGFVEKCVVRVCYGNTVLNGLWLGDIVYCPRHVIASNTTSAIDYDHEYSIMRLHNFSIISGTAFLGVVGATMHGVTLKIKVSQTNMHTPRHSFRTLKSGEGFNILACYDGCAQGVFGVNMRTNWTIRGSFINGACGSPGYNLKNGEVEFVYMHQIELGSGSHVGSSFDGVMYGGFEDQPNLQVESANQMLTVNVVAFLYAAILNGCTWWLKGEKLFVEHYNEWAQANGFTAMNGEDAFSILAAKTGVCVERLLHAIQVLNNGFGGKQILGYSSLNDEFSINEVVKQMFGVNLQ
MERS Mpro, sequence (K9N7C7 3248-3553 limits assumed): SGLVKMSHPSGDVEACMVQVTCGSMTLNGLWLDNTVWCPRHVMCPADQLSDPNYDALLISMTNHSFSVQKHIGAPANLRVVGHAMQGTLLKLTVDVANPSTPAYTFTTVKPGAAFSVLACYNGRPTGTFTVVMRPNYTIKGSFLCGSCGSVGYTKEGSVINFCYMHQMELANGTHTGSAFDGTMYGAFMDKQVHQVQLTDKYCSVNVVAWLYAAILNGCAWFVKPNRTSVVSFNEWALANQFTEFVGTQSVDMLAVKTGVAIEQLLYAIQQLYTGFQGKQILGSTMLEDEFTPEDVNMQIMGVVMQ
HCoV-OC43 Mpro, sequence (P0C6X6 3247-3549 limits assumed): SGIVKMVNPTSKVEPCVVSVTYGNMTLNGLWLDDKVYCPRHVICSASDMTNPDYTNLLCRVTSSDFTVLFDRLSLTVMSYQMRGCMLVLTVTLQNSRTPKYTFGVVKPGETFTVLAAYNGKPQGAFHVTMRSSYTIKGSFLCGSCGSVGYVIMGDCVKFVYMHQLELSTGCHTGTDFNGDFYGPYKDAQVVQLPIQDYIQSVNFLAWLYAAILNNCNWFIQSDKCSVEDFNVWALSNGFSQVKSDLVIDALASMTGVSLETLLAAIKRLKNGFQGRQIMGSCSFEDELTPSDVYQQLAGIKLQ
HCoV-NL63 Mpro, sequence (P0C6X5 2940-3242 limits assumed): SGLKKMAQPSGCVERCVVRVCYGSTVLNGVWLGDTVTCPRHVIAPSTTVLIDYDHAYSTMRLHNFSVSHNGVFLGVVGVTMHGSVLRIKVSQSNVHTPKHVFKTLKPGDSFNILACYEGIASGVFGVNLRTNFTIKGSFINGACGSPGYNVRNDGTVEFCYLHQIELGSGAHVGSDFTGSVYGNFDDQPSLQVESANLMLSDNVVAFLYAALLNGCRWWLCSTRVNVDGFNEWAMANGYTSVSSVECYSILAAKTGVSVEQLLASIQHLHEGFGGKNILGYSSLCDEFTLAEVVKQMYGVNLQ
HCoV-HKU1 Mpro, sequence (P0C6X2 3335-3637 limits assumed): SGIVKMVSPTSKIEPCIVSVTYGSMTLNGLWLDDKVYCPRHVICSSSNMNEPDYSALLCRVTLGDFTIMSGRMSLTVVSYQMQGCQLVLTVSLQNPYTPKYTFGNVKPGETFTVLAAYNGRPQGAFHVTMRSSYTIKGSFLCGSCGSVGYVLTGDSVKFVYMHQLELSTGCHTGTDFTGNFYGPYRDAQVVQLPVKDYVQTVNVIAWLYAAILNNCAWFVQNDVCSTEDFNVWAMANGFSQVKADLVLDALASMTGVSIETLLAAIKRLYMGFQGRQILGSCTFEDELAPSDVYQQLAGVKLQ

| Compound | IC50 [1] [nM] | IC50 [2] [nM] | IC50 [3] [nM] | IC50 [4] [nM] | IC50 [5] [nM] | IC50 [6] [nM] | IC50 [7] [nM] | IC50 [1, 8] [nM] |
| --- | --- | --- | --- | --- | --- | --- | --- | --- |
| O=C[C@H](C[C@@H]1CCNC1=O)NC(=O)[C@@H]1C[C@@H](F)CN1C(=O)c1cc2ccccc2[nH]1 [Compound 98, (2S,4R)-4-fluoro-1-(1H-Indole-2-carbonyl)-N—((S)-1-oxo-3-((S)-2-oxopyrrolidin-3-yl)propan-2-yl)pyrrolidine-2-carboxamide] | 51.1 | 57 | 7 | 518 | 105 | 81 | 206 |  |
| Cn1c(C(=O)N2C[C@H]3[C@@H]([C@H]2C(=O)N[C@H](C=O)C[C@@H]2CCNC2=O)C3(C)C)cc2c(F)cccc21 [Compound 100, (1R,2S,5S)-3-(4-Fluoro-1-methyl-1H-indole-2-carbonyl)-6,6-dimethyl-N—((S)-1-oxo-3-((S)-2-oxopyrrolidin-3-yl)propan-2-yl)-3-azabicyclo[3.1.0]hexane-2-carboxamide] | 54 | 106 | 94.4 | 877 | 398 | 133 | 92.5 |  |
| CO[C@H]1C[C@@H](C(=O)N[C@H](C=O)C[C@@H]2CCNC2=O)N(C(=O)c2cc3ccccc3[nH]2)C1 [Compound 102, (2S,4S)-1-(1H-Indole-2-carbonyl)-4-methoxy-N—((S)-1-oxo-3-((S)-2-oxopyrrolidin-3-yl)propan-2-yl)pyrrolidine-2-carboxamide] | 63.2 | 118 | 83 | 631 | 199 | 141 | 204 |  |
| C[C@H](C(=O)N1C[C@H]2[C@@H]([C@H]1C(=O)N[C@H](C=O)C[C@@H]1CCNC1=O)C2(C)C)c1ccccc1 [Compound 104, (1R,2S,5S)-6,6-Dimethyl-N—((S)-1-oxo-3-((S)-2-oxopyrrolidin-3-yl)propan-2-yl)-3-((S)-2-phenylpropanoyl)-3-azabicyclo[3.1.0]hexane-2-carboxamide] |  | 116 | 109 | 684 | 861 | 197 | 114 | 65.1 |
| O=C[C@H](C[C@@H]1CCNC1=O)NC(=O)[C@@H]1[C@H]2C[C@H](F)[C@H](C2)N1C(=O)c1cc2ccccc2[nH]1 [Compound 106, (1S,3S,4R,6S)-6-Fluoro-2-(1H-indole-2-carbonyl)-N—((S)-1-oxo-3-((S)-2-oxopyrrolidin-3-yl)propan-2-yl)-2-azabicyclo[2.2.1]heptane-3-carboxamide] | 73.7 | 91.2 | 39.7 | 859 | 156 | 118 | 176 |  |
| C[C@@H]1C[C@@H](C(=O)N[C@H](C=O)C[C@@H]2CCNC2=O)N(C(=O)c2cc3ccccc3[nH]2)C1 [Compound 107, (2S,4R)-1-(1H-Indole-2-carbonyl)-4-methyl-N—((S)-1-oxo-3-((S)-2-oxopyrrolidin-3-yl)propan-2-yl)pyrrolidine-2-carboxamide] | 77 | 44.2 | 46.5 | 522 | 62 | 195 | 186 |  |
| C=C1C[C@@H](C(=O)N[C@H](C=O)C[C@@H]2CCNC2=O)N(C(=O)c2cc3ccccc3[nH]2)C1 [Compound 108, (S)-1-(1H-Indole-2-carbonyl)-4-methylene-N—((S)-1-oxo-3-((S)-2-oxopyrrolidin-3-yl)propan-2-yl)pyrrolidine-2-carboxamide] | 78.5 | 48 | 29 | 291 | 38 | 193 | 159 |  |
| O=C[C@H](C[C@@H]1CCNC1=O)NC(=O)[C@@H]1C[C@@H](Cc2ccccc2Cl)CN1C(=O)c1cc2ccccc2[nH]1 [Compound 109, (2S,4R)-4-(2-Chlorobenzyl)-1-(1H-indole-2-carbonyl)-N—((S)-1-oxo-3-((S)-2-oxopyrrolidin-3-yl)propan-2-yl)pyrrolidine-2-carboxamide] | 80.8 | 374 | 48.9 | 4320 | 2320 | 271 | 231 |  |
| CC1CC(C(=O)N2C[C@H]3[C@@H]([C@H]2C(=O)N[C@H](C=O)C[C@@H]2CCNC2=O)C3(C)C)C1 (stereo partly drawn) [Compound 110, (1R,2S,5S)-6,6-Dimethyl-3-(3-methylcyclobutanecarbonyl)-N—((S)-1-oxo-3-((S)-2-oxopyrrolidin-3-yl)propan-2-yl)-3-azabicyclo[3.1.0]hexane-2-carboxamide] |  | 105 | 230 | 1160 | 1590 | 318 | 205 | 82.2 |
| CCOc1ccc2[nH]c(C(=O)N3C[C@H]4[C@@H]([C@H]3C(=O)N[C@H](C=O)C[C@@H]3CCNC3=O)C4(C)C)cc2c1 [Compound 111, (1R,2S,5S)-3-(5-Ethoxy-1H-indole-2-carbonyl)-6,6-dimethyl-N—((S)-1-oxo-3-((S)-2-oxopyrrolidin-3-yl)propan-2-yl)-3-azabicyclo[3.1.0]hexane-2-carboxamide] | 84.1 | 83.3 | 73.3 | 866 | 135 | 169 | 119 |  |
| N#C[C@@H]1C[C@@H](C(=O)N[C@H](C=O)C[C@@H]2CCNC2=O)N(C(=O)c2cc3ccccc3[nH]2)C1 [Compound 112, (2S,4R)-4-Cyano-1-(1H-indole-2-carbonyl)-N—((S)-1-oxo-3-((S)-2-oxopyrrolidin-3-yl)propan-2-yl)pyrrolidine-2-carboxamide] | 84.6 | 149 | 120 | 2760 | 503 | 390 | 244 |  |
| O=C[C@H](C[C@@H]1CCNC1=O)NC(=O)[C@@H]1C[C@@H]2CCCC[C@@H]2N1C(=O)c1cc2ccccc2[nH]1 [Compound 113, (2S,3aS,7aS)-1-(1H-Indole-2-carbonyl)-N—((S)-1-oxo-3-((S)-2-oxopyrrolidin-3-yl)propan-2-yl)octahydro-1H-indole-2-carboxamide] | 91.6 | 33.2 | 28.4 | 581 | 35.7 | 79.3 | 339 |  |
| COc1cc2cc(C(=O)N3C[C@H]4[C@@H]([C@H]3C(=O)N[C@H](C=O)C[C@@H]3CCNC3=O)C4(C)C)[nH]c2cc1OC [Compound 114, (1R,2S,5S)-3-(5,6-dimethoxy-1H-Indole-2-carbonyl)-6,6-dimethyl-N—((S)-1-oxo-3-((S)-2-oxopyrrolidin-3-yl)propan-2-yl)-3-azabicyclo[3.1.0]hexane-2-carboxamide] | 97.3 | 56.2 | 30.6 | 429 | 99.3 | 77.9 | 149 |  |
| O=C[C@H](C[C@@H]1CCNC1=O)NC(=O)[C@@H]1CC(F)(F)CN1C(=O)c1cc2ccccc2[nH]1 [Compound 115, (S)-4,4-difluoro-1-(1H-Indole-2-carbonyl)-N—((S)-1-oxo-3-((S)-2-oxopyrrolidin-3-yl)propan-2-yl)pyrrolidine-2-carboxamide] | 102 | 53 | 15 | 303 | 105 | 87 | 250 |  |
